Data set [1] relates to sterile inflammatory lesions (pus capsule; turpentine oil). Briefly: Gamma camera imaging of rats with sterile inflammation. To be noted: for Figure of Merit (FOM), equation (1): 0.2 mCi ^67 Ga-citrate; for Figure of Merit (FOM), equation (1) / Pus Capsule to Contralateral Tissue (T/B) Ratio, gamma camera imaging: 1.5 mCi/rat ^123 IUdR; for Figure of Merit (FOM), equation (1) / Pus Capsule to Contralateral Tissue (T/B) Ratio, gamma camera imaging / Figure of Merit (FOM), equation (2): n=4, mean ± SD; for Pus Capsule to Contralateral Tissue (T/B) Ratio, gamma camera imaging: 0.2 mCi/rat ^67 Ga. In kind it is in vivo, Male Sprague-Dawley rats. How it is done: Male Sprague-Dawley rats weighing between 150-200g were obtained from the Charles River Breeding Laboratories in Burlington, Mass. […] To anaesthetize the animals during testing, ketamine (40 mg/kg) and xylazine (10 mg/kg) were administered intra peritoneally (1.0 ml/kg) prior to surgical procedures. For the imaging studies, each animal received 1.5 ml/kg of a mixture of ketamine (75 mg/kg), xylazine (39 mg/kg) and acepromazine (0.75 mg/kg).
To induce a localized sterile inflammation, 0.1 ml of turpentine oil (Rectified Turpentine Oil for medical use, Gentry Corporation, Fair Lawn, N.J.) was injected into the left thigh muscle of anesthetized rats.
(§1) A further set of rats prepared as described in Examples 1 and 2 received intravenous injections of either ^123 IUdR (at a dose of about 1.5 mCi/rat) or gallium-67 citrate (at a dose of about 0.2 mCi/rat). After 1, 3 and 24 hours, rats from each group were anesthetized and imaged using a gamma camera (the General Electric STARCAM™ 400 fitted with parallel hole medium collimator). Anterior images were obtained 10^6 counts/frame except for the 24 h period for ^123 IUdR where a 15 min scan was carried out. A 20% window was present over the 159 keV photopeaks of ^67 Ga (93 kev, 184 keV, and 298 keV).
(§2) Regions of interest (ROI) were drawn over the inflamed areas (3×4 pixel) and over the contralateral area in each rat. Total counts in these regions were used to calculate Target to Background (T/B) ratios and to calculate Figure of Merit (FOM; statistical significance) values using either of the following equations:
(§3) FOM=(At -Ab)^2 /(At +Ab) (1)
(§4) At =counts in ROI (3×4) over pus capsule; and
(§5) Ab =counts in ROI (3×4) over contralateral muscle.
(§6) Equation (1) is derived from the Report of the National Council on Radiation Protection and Measurements, Nuclear Medicine, "Factors Influencing the Choice and Use of Radionuclides in Diagnosis and Therapy", Report No. 70, p.79 (NRCP, Bethesda, Md., 1982). Equation (2) is derived from Rubin et al., J. Nucl. Med. 30:385-389, 1989. For purposes of reference, the disclosures of each of these publications is incorporated herein.

In data set [2] the test system is bacterial (E. coli) inflammatory lesions (pus capsule). In words: Gamma camera imaging of rats with bacterial infection. In kind it is in vivo. More on the design: key to Figure of Merit (FOM), equation (1): FOM=(At-Ab)^2/(At+Ab), from total counts target vs background. The settings on record: for Figure of Merit (FOM), equation (1): 0.2 mCi ^67 Ga-citrate (n=3); for Figure of Merit (FOM), equation (1) / Pus Capsule to Contralateral Tissue (T/B) Ratio, gamma camera imaging: 1.5 mCi/rat ^123 IUdR (n=4); for Figure of Merit (FOM), equation (1) / Pus Capsule to Contralateral Tissue (T/B) Ratio, gamma camera imaging / Figure of Merit (FOM), equation (2): mean ± SD; for Pus Capsule to Contralateral Tissue (T/B) Ratio, gamma camera imaging: 0.2 mCi/rat ^67 Ga (n=3); for Figure of Merit (FOM), equation (2): n=3 (^67 Ga), n=4 (^123 IUdR). As for the experimental part: (§7) A frozen sample of E. coli bacteria (clinical isolate; ATCC 9339) was used to inoculate a 10 ml trypticase soy medium (trypticase soy broth, BBL #11768, 30 g/L water), and the tube was incubated overnight at […] This culture was used to grow single colonies by streaking the sample on agar plates (100 mm petri dishes each containing 15 ml of […] in the same medium). Good colonies develop in 10-11 hours at 37° C. The agar plates containing bacterial colonies were stored upside down at 4° C. A single colony of bacteria from the agar plate was used to inoculate 10 ml trypticase soy medium, and the tube was incubated overnight at 37° C. with vigorous shaking. Two ml of this overnight culture was transferred into 100 ml trypticase soy medium and the sample incubated at 37° C. with vigorous shaking until the culture reached an OD600 of ~0.8 (in about 2 hrs). This 100 ml culture contained ~6.4×10^10 bacterial cells (1 OD600 =8×10^8 cells/ml).
(§8) The culture was centrifuged at 5500 rpm for 5 min at 4° C. in a Sorvall SS-34 rotor, the bacterial pellet resuspended in saline to give ~2.5×10^9 bacteria/ml, and 0.1 ml of resuspended cells injected into the left thigh muscle of each anesthetized rat.
as §1, §2, §3, §4, §5, §6

Data set [3] concerns sterile inflammatory lesions (pus capsule; turpentine oil). In words: Biodistribution (pus capsule to contralateral tissue ratio) in rats with sterile inflammation.
Data set [4] relates to bacterial (E. coli) inflammatory lesions (pus capsule). In words: Biodistribution (pus capsule to contralateral tissue ratio) in rats with bacterial infection. In kind it is in vivo. How it is done:
as §7, §8
No-carrier added radioiodinated deoxyuridine (^125 IUdR) was synthesized by the method described in the above disclosure. Commercially available gallium-67 citrate of known biodistribution characteristics was obtained, for comparison to ^125 IUdR. 24 hrs after each rat described in Example 2 received an intramuscular injection of E. coli or after each rat described in Example 1 received an intramuscular injection of turpentine oil (to permit comparison of activity in a bacterial inflammation lesions to activity in a sterile inflammation lesions) in the left rear thigh, each rat received either ^125 IUdR (about 5 μCi/rat) or gallium-67 citrate (about 10 μCi/rat) suspended in 0.1 ml saline, by injection into the tail vein.
At one, three and 24 hrs after ^125 IUdR or gallium-67 citrate administration, the animals from each group were anesthetized, blood collected via cardiac puncture, urine aspirated from the urinary bladder, and the rats humanely sacrificed. The biodistribution of each radiopharmaceutical (measured as a function of the % injected dose/gram body weight) was then determined in various normal tissues and organs, as well as the left and right legs, the pus capsule formed within the leg and in contralateral muscle tissues (i.e., background tissues unaffected by inflammation) of equivalent weight.
To determine the distribution of each radiopharmaceutical in various tissues of each rat (i.e., the "biodistribution" of each radiopharmaceutical), samples of background tissues and organs (blood, lung, liver, spleen, kidney, muscle and intestine), of target tissue (the pus capsule formed in the leg) and of contralateral muscle tissue (background tissue adjacent to target tissue) were obtained from each rat and weighed. Radioactivity in each sample was measured in a well-type gamma counter (from LKB, Wallac Oy, Finland). To correct for radioactive decay and permit calculation of activity in each organ or tissue as a fraction of the injected dosage of radiopharmaceutical, aliquots of the injected doses were counted at the same time that radioactivity in each sample was determined. The results were measured as a function of the percentage of injected dose/gram (% ID/g). For further reference regarding measurements of biodistribution of radiopharmaceuticals, particularly in blood, those of ordinary skill in the art may wish to refer to Baker et al., "The Laboratory Rat" (Acad.Press N.Y., 1980).
Ab = %ID/g over contralateral muscle

For `O=c1[nH]c(=O)n([C@H]2C[C@H](O)[C@@H](CO)O2)cc1[123I]` [^123 IUdR], the “detection of the lesion in scintigraphic images (in words)” value in data set [1] (1, 3, and 24 h, i.v.) was “can clearly detect the lesion”; in data set [2] (1, 3, and 24 h, i.v.) it was “can clearly detect the lesion”. Moreover, the “Figure of Merit (FOM), equation (1)” value is recorded as 14444 ± 559 in data set [1] (1 h, i.v.); 750 + 268 in data set [1] (3 h, i.v.); 69 + 52 in data set [1] (24 h, i.v.); 1770 ± 598 in data set [2] (1 h, i.v.); 1507 ± 775 in data set [2] (3 h, i.v.); 214 + 135 in data set [2] (24 h, i.v.). The “Pus Capsule to Contralateral Tissue (T/B) Ratio, gamma camera imaging” value stood at 4.13 ± 1.06 in data set [1] (1 h, i.v.); 3.33 ± 0.92 in data set [1] (3 h, i.v.); 3.07 ± 0.930 in data set [1] (24 h, i.v.); 3.72 ± 1.06 in data set [2] (1 h, i.v.); 3.53 ± 0.80 in data set [2] (3 h, i.v.); 5.35 ± 2.37 in data set [2] (24 h, i.v.). The “Figure of Merit (FOM), equation (2)” value in data set [1] (1 h, i.v.) is listed as 3.13 ± 0.53; in data set [1] (3 h, i.v.), 2.33 ± 0.46; in data set [1] (24 h, i.v.), 2.07 ± 1.46; in data set [2] (1 h, i.v.), 2.72 ± 0.53; in data set [2] (3 h, i.v.), 2.53 ± 0.40; in data set [2] (24 h, i.v.), 4.35 ± 1.19. Also, in data set [1] (3 hrs), the “efficacy by imaging T/B ratio, comparison of agents (in words)” value was “equal”. For the same compound, the “accumulation in target tissues, rate vs gallium-67 citrate (in words)” value in data set [1] (FIGS. 4 and 8 vs FIGS. 3 and 7) is “more quickly than did gallium-67 citrate”. For the same compound, the “radioscintigraphic detection by FOM, comparison of agents (in words)” value is “superior agent” in data set [1] (early (i.e., 1 h)); “superior agent” in data set [2] (1 h, 3 hrs, and 24 hrs). For the same compound, the “radioscintigraphic detection by imaging T/B ratio, comparison of agents (in words)” value is “superior to gallium-67” in data set [1] (early (i.e., 1 h)); “superior to gallium-67” in data set [2] (1 h, 3 hrs, and 24 hrs).
In the case of `O=c1[nH]c(=O)n([C@H]2C[C@H](O)[C@@H](CO)O2)cc1[125I]` [^125 IUdR], the “concentration within lesion (pus capsule) vs contralateral tissues (in words)” value was “to a greater extent than in the contralateral tissues” in data set [3] (sterile inflammation (turpentine oil)) and “to a greater extent than in the contralateral tissues” in data set [4] (rat, in vivo). Moreover, the “radioscintigraphic detection by biodistribution T/B ratios, compared with ^67 Ga (in words)” value is “much better than ^67 Ga” in data set [3] (sterile inflammation, 3 h and 24 h); “better” in data set [4] (bacterial infection, 1 h, 3 h, and 24 h). The “time of accumulation in target (inflamed) tissues” value in data set [4] (rat, in vivo) was at most 1 h.

(Values after US5811073A, “Method for radioisotopic detection and localization of inflammation in a host” (President and Fellows of Harvard College, priority 1995, dated 1998).)
